{"source": "paper PMC12706794", "about": "“Identification and Characterization of a Small-Molecule Inhibitor of the Pseudomonas aeruginosa SOS Response” (ACS Infectious Diseases, 2025)", "key": {"RecAPa": {"molecular_target": "T1, RecAPa (Pseudomonas aeruginosa, UniProt P08280)", "T1 construct": "made in house; host or cells: E. coli BL21(DE3)", "assay": "ESI-MS analysis of RecAPa preincubated with A12", "format": "binding, P. aeruginosa", "conditions": "2 mM A12, 2 h at 25 °C; condensation, Lys285", "procedure": "Then, ESI-MS analysis was carried out on both RecAPa and LexAPa alone and preincubated with A12 (referred to as RecAPa-A12 and LexAPa-A12, respectively).\nMS analysis was carried out on 5 μL samples of compound A12 (2 mM), of the proteins 6His-LexAPa and 6His-RecAPa (50 μM), and of the same proteins incubated with 2 mM A12 (2 h incubation at 25 °C, 10% v/v DMSO in 100 mM NaHCO3 pH 7.0). Aliquots of the latter samples were treated with 5 mM dithiothreitol (DTT) for 1 h at 25 °C before being buffer-exchanged in 100 mM NaHCO3 at pH 7.0. Samples were analyzed by an electrospray ionization (ESI) mass spectrometer equipped with a Xevo G2-XS ESI-Q-TOF mass spectrometer (Waters Corporation, Milford, Massachusetts, USA). Measurements were carried out at 1.5–1.8 kV capillary voltage and 30–40 V cone voltage.\nTryptic digestion was obtained at a 1:20 trypsin to protein ratio (by weight) after the incubation of the proteins (6His-LexAPa and 6His-RecAPa) with chemical compound A12. The reaction was left at 37 °C overnight and then stopped by freezing at – 20 °C. Proteolytic mixtures were analyzed by LC–MS, using an Agilent AdvanceBio Peptide Map column (2.1 × 150 mm × 2.7 μm; Santa Clara, CA, USA) connected to an Acquity H-Class instrument (Waters Corporation, Milford, Massachusetts, USA). […]"}, "[1]": {"molecular_target": "T2, RecAPa*-induced full-length LexAPa autoproteolysis (Pseudomonas aeruginosa, UniProt P37452)", "T2 construct": "Full-length LexAPa was used instead of FlAsH-LexAPa ^CTD; made in house; host or cells: E. coli BL21(DE3)", "T2 sequence (P37452 2-204)": "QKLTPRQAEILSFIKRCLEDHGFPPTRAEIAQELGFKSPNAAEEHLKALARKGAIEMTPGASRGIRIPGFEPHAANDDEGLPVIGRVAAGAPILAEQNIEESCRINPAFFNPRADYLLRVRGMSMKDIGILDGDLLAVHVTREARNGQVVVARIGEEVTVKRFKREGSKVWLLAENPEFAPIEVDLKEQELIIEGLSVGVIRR", "assay": "RecAPa*-induced LexAPa autoproteolysis assay by SDS-PAGE", "format": "biochemical, P. aeruginosa", "conditions": "1 μM full-length LexAPa, 1 μM RecA*Pa, 1 h at 37 °C", "procedure": "To further validate the activity of A12 on RecA*Pa-LexAPa, an assay was performed using full-length LexAPa, and autoproteolysis was followed by SDS-PAGE in the presence of different concentrations of A12 (Figure E). Cleavage reactions were performed at 1 μM full-length LexAPa, initiated by the addition of 1 μM RecA*Pa, and stopped after a 1 h incubation at 37 °C, corresponding to the same conditions used for the FP assay.\nSDS-PAGE was used as an orthogonal technique to FP to validate the dose-dependent inhibition of RecAPa*-induced LexAPa autocleavage by the selected hit compound.\nFull-length LexAPa was used instead of FlAsH-LexAPa ^CTD, but reaction volumes, molar concentrations of reagents, incubation time, and temperature were kept the same as in the FP-based assay. Following 1 h of incubation at 37 °C in the presence of RecAPa*, reactions were stopped by adding Laemmli solubilization buffer and freezing the samples at −20 °C.\nSamples were boiled 5 min at 95 °C before being loaded on 4–12% polyacrylamide gels. After Coomassie staining of the gels, the intensity of the bands corresponding to LexAPa and its autoproteolytic fragments was quantified using ImageJ. Data obtained from LexACTD/NTD bands densitometry were used to estimate LexA self-cleavage percent inhibition (scaling all the data from 0%, positive control, to 100%, negative control). […]"}, "A549 cells": {"test_system": "A549 cells", "assay": "Cytotoxicity assessment by MTT assay, A549", "format": "cell-based, Human", "conditions": "combination of ciprofloxacin 0.5 μg/mL and A12 100 μg/mL, 3 h", "procedure": "A549 cells were seeded in flat-bottom 96-well plates at 5 × 10^4 cells/well. THP-1 monocytes were differentiated into macrophages using PMA as described above, rested in PMA-free medium, detached by trypsinization, and seeded at 5 × 10^4 cells/well. Plates were incubated overnight to allow cell attachment. […] Test medium was then removed and replaced with fresh medium containing 0.5 mg/mL 3-(4,5-dimethylthiazol-2-yl)-2,5-diphenyltetrazolium bromide (MTT). After a 2 h incubation, the medium was discarded, formazan crystals were solubilized with 100 μL of DMSO, and absorbance was measured at 570 nm using a spectrophotometer (Varioskan LUX Multimode Microplate Reader, Thermo Fisher Scientific). Cell viability was expressed as a percentage relative to the untreated controls."}, "[2]": {"molecular_target": "T3, LexAPa S125A / SOS-box dsDNA (Pseudomonas aeruginosa, UniProt P37452, S125A)", "T3 construct": "Concerning full-length LexAPa ^S125A, a biphasic melting curve was obtained for the pure protein; made in house; host or cells: E. coli BL21(DE3)", "T3 sequence (P37452 2-204 S125A)": "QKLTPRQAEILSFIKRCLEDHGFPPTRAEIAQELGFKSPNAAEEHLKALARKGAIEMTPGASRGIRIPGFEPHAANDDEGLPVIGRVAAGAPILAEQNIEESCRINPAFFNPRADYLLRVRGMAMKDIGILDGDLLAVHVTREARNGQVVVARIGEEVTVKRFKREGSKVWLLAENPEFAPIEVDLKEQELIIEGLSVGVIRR", "assay": "EMSA of LexAPa S125A binding to SOS box dsDNA", "format": "biochemical, P. aeruginosa", "conditions": "60-fold molar excess of A12", "procedure": "LexAPa DNA-binding activity–which has to be preserved for an anti-SOS strategy to be effective–resides on the NTD but requires dimerization via the CTD. In this context, to rule out any interfering effect of A12 on LexAPa binding to SOS-box DNA, an EMSA was performed by incubating LexAPa with operator dsDNA sequences and different doses of A12, before analyzing the mixtures on native polyacrylamide gels.\nAn EMSA of the SOS-box dsDNA in the presence of full-length LexAPaS125A and different concentrations of the hit compound was performed to observe the potential interference effects of the selected drug on LexAPa binding to operator DNA sequences.\nSOS-box dsDNA was produced by mixing equimolar amounts of AT-repeat_For and AT-repeat_Rev oligonucleotides (Supplementary, Table S1) in annealing buffer (10 mM Tris–HCl, 50 mM NaCl, 1 mM EDTA, pH 7.5), heating at 95 °C for 5 min, and then allowing the mixture to cool down to room temperature slowly overnight. The E. coli “AT-repeat” operator sequence was used as it is fully compatible with the P. aeruginosa SOS-box consensus (CTG-N2-T-N7-CAG).\n1 μM SOS-box dsDNA was incubated either alone or with 8 μM 6His-LexAPa ^S125A in EMSA buffer (50 mM Tris–HCl, 750 mM KCl, 0.5 mM EDTA, pH 7.4). […]"}}}
{"compound": "O=C(O)CCNc1ccccc1S", "note": "[A12, 3-(2-sulfanylanilino)propanoic acid]", "values": [{"measurement": "Mass difference of A12-modified RecAPa versus unmodified protein", "setting": "RecAPa", "result": 179, "unit": "Da"}, {"measurement": "IC50", "setting": "[1]", "result": "58 ± 5", "unit": "µM"}, {"measurement": "Cell viability compared to the untreated control", "setting": "A549 cells", "result": "higher than 80%"}, {"measurement": "LexAPa SOS box DNA-binding activity in the presence of A12", "setting": "[2]", "result": "retained full SOS box DNA-binding activity"}]}
